Experimental data as given in PubChem BioAssay AID2060609 (Molecular Pharmacology Branch, DTP, NCI, 2025).

Test system: 855422-203-R-J1-PDC complex spheroids, viability
Assay: Anticancer human tumor 855422-203-R-J1-PDC patient-derived bladder carcinoma cell line growth inhibition [CLK]
Settings: for IC50: curve of first compound; for viability, T/C: stronger effect = lower value
Procedure, shortened: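 Multi-cell-type spheroids combined patient-derived tumor cells with HUVEC endothelial cells and human mesenchymal stem cells. Paired agents were dosed in half-log steps down from about clinical Cmax, or from 10 microM where Cmax was unknown.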

[1] = second compound 0.0316 µM, first compound 0.0316 µM
[2] = second compound 0.0316 µM, first compound 0.1 µM
[3] = second compound 0.0316 µM, first compound 0.316 µM
[4] = second compound 0.0316 µM, first compound 1 µM
[5] = second compound 0.0316 µM, first compound 3.16 µM
[6] = second compound 0.0316 µM, first compound 10 µM
[7] = second compound 0.1 µM, first compound 0.0316 µM
[8] = second compound 0.1 µM, first compound 0.1 µM
[9] = second compound 0.1 µM, first compound 0.316 µM
[10] = second compound 0.1 µM, first compound 1 µM
[11] = second compound 0.1 µM, first compound 3.16 µM
[12] = second compound 0.1 µM, first compound 10 µM
[13] = second compound 0.316 µM, first compound 0.0316 µM
[14] = second compound 0.316 µM, first compound 0.1 µM
[15] = second compound 0.316 µM, first compound 0.316 µM
[16] = second compound 0.316 µM, first compound 1 µM
[17] = second compound 0.316 µM, first compound 3.16 µM
[18] = second compound 0.316 µM, first compound 10 µM
[19] = second compound 1 µM, first compound 0.0316 µM
[20] = second compound 1 µM, first compound 0.1 µM
[21] = second compound 1 µM, first compound 0.316 µM
[22] = second compound 1 µM, first compound 1 µM
[23] = second compound 1 µM, first compound 3.16 µM
[24] = second compound 1 µM, first compound 10 µM
[25] = second compound 3.16 µM, first compound 0.0316 µM
[26] = second compound 3.16 µM, first compound 0.1 µM
[27] = second compound 3.16 µM, first compound 0.316 µM
[28] = second compound 3.16 µM, first compound 1 µM
[29] = second compound 3.16 µM, first compound 3.16 µM
[30] = second compound 3.16 µM, first compound 10 µM
[31] = second compound 10 µM, first compound 0.0316 µM
[32] = second compound 10 µM, first compound 0.1 µM
[33] = second compound 10 µM, first compound 0.316 µM
[34] = second compound 10 µM, first compound 1 µM
[35] = second compound 10 µM, first compound 3.16 µM
[36] = second compound 10 µM, first compound 10 µM
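Note: spheroids exposed to drugs for seven days before readout.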
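Throughout, for viability, T/C: 100% = DMSO vehicle control wells.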

`C=CC(=O)N1CCN(c2nc(=O)n(-c3c(C)ccnc3C(C)C)c3nc(-c4c(O)cccc4F)c(F)cc23)C(C)C1` (stereo not drawn) + CNC(=O)c1ccc(Nc2nc(OC3CCCC3)c3c(-c4ccc5nc(C)oc5c4)c[nH]c3n2)c(OC)c1 gave an IC50 (second compound 0.0316 µM) of over 10000 nM, an IC50 (second compound 0.1 µM) of under 31.6 nM and an IC50 (second compound 0.316 µM) of under 31.6 nM. It also gave an IC50 (second compound 1 µM) of under 31.6 nM, an IC50 (second compound 3.16 µM) of under 31.6 nM and an IC50 (second compound 10 µM) of under 31.6 nM. The viability, T/C [1] was 78.8%, the viability, T/C [2] was 91.5% and the viability, T/C [3] was 104%. It also gave a viability, T/C [4] of 103%, a viability, T/C [5] of 179% and a viability, T/C [6] of 127%. The viability, T/C [7] was 47.5%, the viability, T/C [8] was 50.9% and the viability, T/C [9] was 45.8%. For the same compound, the viability, T/C [10] was 41.6%, the viability, T/C [11] was 43.5% and the viability, T/C [12] was 23.9%. It also gave a viability, T/C [13] of 21.1%, a viability, T/C [14] of 19% and a viability, T/C [15] of 21.8%. It also gave a viability, T/C [16] of 27%, a viability, T/C [17] of 22.7% and a viability, T/C [18] of 23.4%. It also gave a viability, T/C [19] of 21.2%, a viability, T/C [20] of 17.7% and a viability, T/C [21] of 21%. It also gave a viability, T/C [22] of 22.5%, a viability, T/C [23] of 21.5% and a viability, T/C [24] of 19.4%. The viability, T/C [25] was 16.2%, the viability, T/C [26] was 18.3% and the viability, T/C [27] was 18.6%. The viability, T/C [28] was 18.9%, the viability, T/C [29] was 17% and the viability, T/C [30] was 14.1%. The viability, T/C [31] was 19.4%, the viability, T/C [32] was 17.1% and the viability, T/C [33] was 19.5%. The viability, T/C [34] was 29.2%, the viability, T/C [35] was 17.6% and the viability, T/C [36] was 16.7%.
For `COc1ccc([C@@H](O)c2cc(-c3ncnc4cc(N5CCOCC5)ccc34)c(F)cc2Cl)nn1` + CN1CCN(c2cc(C(=O)Nc3cc4cc(-c5cnn(C)c5)ccc4cn3)ccn2)CC1, the IC50 (second compound 0.0316 µM) was 5350 nM, the IC50 (second compound 0.1 µM) was 5050 nM and the IC50 (second compound 0.316 µM) was under 31.6 nM. The IC50 (second compound 1 µM) was under 31.6 nM, the IC50 (second compound 3.16 µM) was under 31.6 nM and the IC50 (second compound 10 µM) was under 31.6 nM. It also gave a viability, T/C [1] of 104%, a viability, T/C [2] of 118% and a viability, T/C [3] of 91.3%. It also gave a viability, T/C [4] of 94%, a viability, T/C [5] of 66% and a viability, T/C [6] of 29.9%. The viability, T/C [7] was 84.7%, the viability, T/C [8] was 96.1% and the viability, T/C [9] was 89.2%. It also gave a viability, T/C [10] of 86%, a viability, T/C [11] of 64.6% and a viability, T/C [12] of 28.7%. For the same compound, the viability, T/C [13] was 6.51%, the viability, T/C [14] was 8.74% and the viability, T/C [15] was 5.23%. It also gave a viability, T/C [16] of 4.62%, a viability, T/C [17] of 5.93% and a viability, T/C [18] of 5.44%. It also gave a viability, T/C [19] of 0.14%, a viability, T/C [20] of 0.19% and a viability, T/C [21] of 0.74%. It also gave a viability, T/C [22] of 0.11%, a viability, T/C [23] of 2.55% and a viability, T/C [24] of 0.09%. It also gave a viability, T/C [25] of 1.7%, a viability, T/C [26] of 0.33% and a viability, T/C [27] of 1.52%. The viability, T/C [28] was 0.2%, the viability, T/C [29] was 0.33% and the viability, T/C [30] was 0.13%. The viability, T/C [31] was 0.6%, the viability, T/C [32] was 0.27% and the viability, T/C [33] was 0.24%. For the same compound, the viability, T/C [34] was 0.24%, the viability, T/C [35] was 0.26% and the viability, T/C [36] was 0.19%.
`CC(=O)O[C@H]1C(=O)[C@@]2(C)[C@H]([C@H](OC(=O)c3ccccc3)[C@]3(O)C[C@H](OC(=O)[C@H](O)[C@@H](NC(=O)c4ccccc4)c4ccccc4)C(C)=C1C3(C)C)[C@]1(OC(C)=O)CO[C@@H]1C[C@@H]2O` + CNC(=O)c1ccc(Nc2nc(OC3CCCC3)c3c(-c4ccc5nc(C)oc5c4)c[nH]c3n2)c(OC)c1 showed an IC50 (second compound 0.0316 µM) of under 31.6 nM, an IC50 (second compound 0.1 µM) of under 31.6 nM and an IC50 (second compound 0.316 µM) of under 31.6 nM. For the same compound, the IC50 (second compound 1 µM) was under 31.6 nM, the IC50 (second compound 3.16 µM) was under 31.6 nM and the IC50 (second compound 10 µM) was under 31.6 nM. It also gave a viability, T/C [1] of 8.98%, a viability, T/C [2] of 6.61% and a viability, T/C [3] of 7.27%. For the same compound, the viability, T/C [4] was 7.58%, the viability, T/C [5] was 8.71% and the viability, T/C [6] was 11.3%. The viability, T/C [7] was 16.5%, the viability, T/C [8] was 11.2% and the viability, T/C [9] was 13.8%. The viability, T/C [10] was 11.9%, the viability, T/C [11] was 15% and the viability, T/C [12] was 25.5%. For the same compound, the viability, T/C [13] was 30.5%, the viability, T/C [14] was 28.8% and the viability, T/C [15] was 29.2%. The viability, T/C [16] was 31.9%, the viability, T/C [17] was 34.4% and the viability, T/C [18] was 31.5%. The viability, T/C [19] was 32%, the viability, T/C [20] was 25.3% and the viability, T/C [21] was 28.1%. It also gave a viability, T/C [22] of 35.5%, a viability, T/C [23] of 36.5% and a viability, T/C [24] of 27%. It also gave a viability, T/C [25] of 28.6%, a viability, T/C [26] of 28.3% and a viability, T/C [27] of 21.7%. It also gave a viability, T/C [28] of 31.7%, a viability, T/C [29] of 31.8% and a viability, T/C [30] of 24.2%. For the same compound, the viability, T/C [31] was 23.4%, the viability, T/C [32] was 33.6% and the viability, T/C [33] was 25.5%. The viability, T/C [34] was 24.9%, the viability, T/C [35] was 31.4% and the viability, T/C [36] was 26.3%.
With `CC(CO)NC(=O)c1cc(-c2ccc(Cl)cc2)nn(-c2cnn(C)c2)c1=O` (stereo not drawn) + CNC(=O)c1ccc(Nc2nc(OC3CCCC3)c3c(-c4ccc5nc(C)oc5c4)c[nH]c3n2)c(OC)c1 the IC50 (second compound 0.0316 µM) was over 10000 nM, the IC50 (second compound 0.1 µM) was 3540 nM and the IC50 (second compound 0.316 µM) was under 31.6 nM. The IC50 (second compound 1 µM) was under 31.6 nM, the IC50 (second compound 3.16 µM) was under 31.6 nM and the IC50 (second compound 10 µM) was under 31.6 nM. The viability, T/C [1] was 99%, the viability, T/C [2] was 78.6% and the viability, T/C [3] was 87.3%. For the same compound, the viability, T/C [4] was 95%, the viability, T/C [5] was 96% and the viability, T/C [6] was 80.9%. The viability, T/C [7] was 50.1%, the viability, T/C [8] was 50.6% and the viability, T/C [9] was 55%. For the same compound, the viability, T/C [10] was 63%, the viability, T/C [11] was 46% and the viability, T/C [12] was 42.5%. It also gave a viability, T/C [13] of 23%, a viability, T/C [14] of 21.9% and a viability, T/C [15] of 22.9%. For the same compound, the viability, T/C [16] was 22.4%, the viability, T/C [17] was 20.8% and the viability, T/C [18] was 21.8%. For the same compound, the viability, T/C [19] was 18.8%, the viability, T/C [20] was 19.7% and the viability, T/C [21] was 19.8%. For the same compound, the viability, T/C [22] was 20.7%, the viability, T/C [23] was 20.5% and the viability, T/C [24] was 21%. The viability, T/C [25] was 24.3%, the viability, T/C [26] was 20.9% and the viability, T/C [27] was 22.7%. For the same compound, the viability, T/C [28] was 22.2%, the viability, T/C [29] was 22.3% and the viability, T/C [30] was 20%. For the same compound, the viability, T/C [31] was 16.7%, the viability, T/C [32] was 21.2% and the viability, T/C [33] was 22.2%. For the same compound, the viability, T/C [34] was 20.5%, the viability, T/C [35] was 19.9% and the viability, T/C [36] was 20%.
